Experimental findings from ChEMBL document CHEMBL5579877, “Design and Evaluation of 3-Phenyloxetane Derivative Agonists of the Glucagon-Like Peptide-1 Receptor” (J Med Chem, 2024) are described below.

The species entered for one data set is Macaca mulatta. The data set is described as follows: Activation of monkey GLP-1R. The settings on record: filed as activator.
Data set [1] is described as follows: Oral clearance in ICR mouse at 5 mg/kg, po by LC-MS/MS analysis. The settings on record: in vivo. It is filed as ADME, organism-based.
The nature of data set [2]: Drug distribution in rat intestine at 5 mg/kg, po. The data set is classed as ADME, organism-based. The settings on record: in vivo.
Data set [3] has as its target T1, hERG (KCNH2) (Homo sapiens, UniProt Q12809). Description: Inhibition of human ERG at 1 uM by whole cell patch clamp method relative to control. The data set is classed as toxicity. (The patch-clamp technique gives a direct electrical read-out from membranes.)
A short description of data set [4]: Drug distribution in rat stomach at 5 mg/kg, po. It is filed as ADME, organism-based. The note with it: in vivo.
Data set [5] concerns the target T2, Glucagon-like peptide 1 receptor (Mus musculus) (UniProt O35659).
T2 sequence (whole entry): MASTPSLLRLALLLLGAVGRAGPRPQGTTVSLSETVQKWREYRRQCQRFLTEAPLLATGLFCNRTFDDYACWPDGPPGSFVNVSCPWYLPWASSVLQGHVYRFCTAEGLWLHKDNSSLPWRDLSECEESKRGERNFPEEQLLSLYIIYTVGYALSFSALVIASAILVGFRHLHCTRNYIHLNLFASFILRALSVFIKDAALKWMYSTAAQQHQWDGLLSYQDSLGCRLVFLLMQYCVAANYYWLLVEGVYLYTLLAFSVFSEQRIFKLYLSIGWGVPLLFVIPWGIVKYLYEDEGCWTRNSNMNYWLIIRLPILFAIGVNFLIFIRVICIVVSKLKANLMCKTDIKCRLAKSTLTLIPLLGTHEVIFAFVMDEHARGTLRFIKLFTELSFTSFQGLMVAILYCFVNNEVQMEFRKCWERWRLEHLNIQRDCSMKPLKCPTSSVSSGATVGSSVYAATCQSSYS
The data set is described as follows: Activation of mouse GLP-1R.

Data set [6] concerns the target T3, 5-hydroxytryptamine receptor 2A (Homo sapiens, UniProt P28223). The data set is described as follows: Inhibition of 5HT2A (unknown origin) relative to control. The note with it: concentration not given here.
Data set [7] has as its target T4, Glucagon-like peptide 1 receptor (Homo sapiens, UniProt P43220). Description: Activation of human GLP-1R. The settings on record: filed as activator.
Data set [8] addresses T5, Glucagon-like peptide 1 receptor (Rattus norvegicus) (UniProt P32301).
T5 sequence (whole entry): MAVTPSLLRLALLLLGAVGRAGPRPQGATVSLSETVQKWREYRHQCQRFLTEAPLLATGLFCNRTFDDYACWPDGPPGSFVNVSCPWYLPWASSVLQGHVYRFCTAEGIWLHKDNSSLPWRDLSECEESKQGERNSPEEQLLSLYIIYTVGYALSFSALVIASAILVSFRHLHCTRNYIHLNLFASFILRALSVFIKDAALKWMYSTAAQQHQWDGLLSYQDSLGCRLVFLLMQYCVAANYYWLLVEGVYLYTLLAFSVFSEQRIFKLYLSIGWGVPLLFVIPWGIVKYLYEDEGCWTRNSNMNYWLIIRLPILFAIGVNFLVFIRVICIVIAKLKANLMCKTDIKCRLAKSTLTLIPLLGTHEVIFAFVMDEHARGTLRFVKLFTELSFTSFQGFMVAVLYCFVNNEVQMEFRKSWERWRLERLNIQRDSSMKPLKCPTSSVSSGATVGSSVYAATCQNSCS
The data set is described as follows: Activation of rat GLP-1R.

In data set [9] the target is T4, Glucagon-like peptide 1 receptor. The data set is described as follows: Agonist activity at GLP-1R (unknown origin) assessed as beta-arrestin 1 recruitment. The data set is classed as functional.
For data set [10], the target named is T1, hERG (KCNH2). The data set is described as follows: Inhibition of human ERG at 10 uM by whole cell patch clamp method relative to control. It is filed as toxicity.
Data set [11] can be described thus: Efflux ratio of permeability across basolateral to apical side over apical to basolateral side in human Caco-2. The data set is classed as ADME, cell-based. On the technique in general: Caco-2 cells form a polarised layer with tight junctions and transporters.
Data set [12] is described as follows: Drug distribution in rat liver at 5 mg/kg, po. The data set is classed as ADME, organism-based. The note with it: in vivo.
In data set [13] the target is T3, 5-hydroxytryptamine receptor 2A. Description: Inhibition of 5HT2A (unknown origin).
Another data set has as its target T6, Cytochrome P450 2B6 (Homo sapiens, UniProt P20813).
T6 sequence (P20813 whole entry): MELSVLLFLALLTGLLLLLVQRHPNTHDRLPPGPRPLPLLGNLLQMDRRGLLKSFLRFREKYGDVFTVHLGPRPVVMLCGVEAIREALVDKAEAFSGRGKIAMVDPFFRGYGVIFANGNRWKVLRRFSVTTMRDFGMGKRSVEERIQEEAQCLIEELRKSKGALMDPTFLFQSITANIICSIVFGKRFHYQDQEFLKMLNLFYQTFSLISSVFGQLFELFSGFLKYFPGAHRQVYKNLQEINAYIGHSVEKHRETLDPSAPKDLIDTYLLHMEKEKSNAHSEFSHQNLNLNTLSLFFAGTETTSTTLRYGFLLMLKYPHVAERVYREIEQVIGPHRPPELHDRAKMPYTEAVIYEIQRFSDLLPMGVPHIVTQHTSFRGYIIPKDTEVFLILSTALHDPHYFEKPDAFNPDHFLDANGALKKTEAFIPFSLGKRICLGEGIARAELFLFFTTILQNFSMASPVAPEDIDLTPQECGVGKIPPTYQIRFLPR
Description: Inhibition of CYP2B6 in human liver microsomes using bupropion as substrate preincubated for 5 mins followed by NADPH addition and measured after 10 mins by LC-MS/MS analysis. It is filed as ADME, Microsome. In general terms: Liver microsomes are a subcellular fraction often used to study metabolism.

Data set [14] has as its target T4, Glucagon-like peptide 1 receptor. The data set is described as follows: Agonist activity at GLP-1R (unknown origin) assessed as beta-arrestin 2 recruitment. The data set is classed as functional.
Data set [15] is described as follows: Cmax in cynomolgus monkey at 20 mg/kg, po. It is filed as ADME, organism-based, Macaca fascicularis. The note with it: in vivo.
For data set [16], the target named is T7, 5-hydroxytryptamine receptor 1A (Homo sapiens) (UniProt P08908).
T7 sequence (whole entry): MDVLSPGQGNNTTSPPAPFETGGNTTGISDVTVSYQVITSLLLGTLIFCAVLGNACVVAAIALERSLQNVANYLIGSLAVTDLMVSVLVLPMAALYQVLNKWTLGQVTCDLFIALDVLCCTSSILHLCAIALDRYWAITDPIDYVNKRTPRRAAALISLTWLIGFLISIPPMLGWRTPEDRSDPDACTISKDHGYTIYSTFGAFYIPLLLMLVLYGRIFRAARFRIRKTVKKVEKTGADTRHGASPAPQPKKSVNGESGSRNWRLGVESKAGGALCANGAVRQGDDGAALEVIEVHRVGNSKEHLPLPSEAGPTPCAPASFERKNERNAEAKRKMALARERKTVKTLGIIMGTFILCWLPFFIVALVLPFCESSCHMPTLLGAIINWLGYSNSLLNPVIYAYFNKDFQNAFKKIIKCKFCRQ
Description: Inhibition of 5HT1A (unknown origin) relative to control. The note with it: concentration not given here.

The target in data set [17] is T8, 5-hydroxytryptamine receptor 1A (Homo sapiens, UniProt P08908).
T8 sequence (P08908 whole entry): T7 sequence (whole entry)
Description: Inhibition of 5HT1A (unknown origin).

Active and inactive are the calls of the source. No cut-off for these calls is given here.

T4 sequence (P43220 whole entry): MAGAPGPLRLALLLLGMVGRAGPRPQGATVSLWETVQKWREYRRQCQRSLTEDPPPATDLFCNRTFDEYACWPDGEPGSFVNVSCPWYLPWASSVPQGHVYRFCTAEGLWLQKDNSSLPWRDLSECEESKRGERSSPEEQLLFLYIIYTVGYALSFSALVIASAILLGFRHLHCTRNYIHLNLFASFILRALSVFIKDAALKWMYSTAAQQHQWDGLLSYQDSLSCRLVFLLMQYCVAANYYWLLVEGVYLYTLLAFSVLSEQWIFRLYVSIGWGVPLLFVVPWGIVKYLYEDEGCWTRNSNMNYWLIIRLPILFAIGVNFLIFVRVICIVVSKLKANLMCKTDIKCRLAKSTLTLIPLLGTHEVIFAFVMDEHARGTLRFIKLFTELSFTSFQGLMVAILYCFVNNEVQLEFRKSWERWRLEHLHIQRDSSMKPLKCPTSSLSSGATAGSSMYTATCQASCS
T3 sequence (P28223 whole entry): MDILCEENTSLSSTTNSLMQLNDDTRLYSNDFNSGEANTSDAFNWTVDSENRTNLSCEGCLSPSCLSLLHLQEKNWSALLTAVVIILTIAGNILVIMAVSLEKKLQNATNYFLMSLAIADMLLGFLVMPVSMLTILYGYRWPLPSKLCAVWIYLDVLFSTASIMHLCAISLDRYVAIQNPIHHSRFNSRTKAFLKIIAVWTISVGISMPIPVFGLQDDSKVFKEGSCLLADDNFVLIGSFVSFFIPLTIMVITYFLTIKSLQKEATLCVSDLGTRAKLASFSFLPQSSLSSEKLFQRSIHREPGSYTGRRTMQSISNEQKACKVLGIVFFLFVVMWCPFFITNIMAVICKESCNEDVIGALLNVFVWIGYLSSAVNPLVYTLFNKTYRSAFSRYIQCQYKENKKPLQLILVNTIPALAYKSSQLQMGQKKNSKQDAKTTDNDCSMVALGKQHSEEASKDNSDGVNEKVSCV
T1 sequence (Q12809 whole entry): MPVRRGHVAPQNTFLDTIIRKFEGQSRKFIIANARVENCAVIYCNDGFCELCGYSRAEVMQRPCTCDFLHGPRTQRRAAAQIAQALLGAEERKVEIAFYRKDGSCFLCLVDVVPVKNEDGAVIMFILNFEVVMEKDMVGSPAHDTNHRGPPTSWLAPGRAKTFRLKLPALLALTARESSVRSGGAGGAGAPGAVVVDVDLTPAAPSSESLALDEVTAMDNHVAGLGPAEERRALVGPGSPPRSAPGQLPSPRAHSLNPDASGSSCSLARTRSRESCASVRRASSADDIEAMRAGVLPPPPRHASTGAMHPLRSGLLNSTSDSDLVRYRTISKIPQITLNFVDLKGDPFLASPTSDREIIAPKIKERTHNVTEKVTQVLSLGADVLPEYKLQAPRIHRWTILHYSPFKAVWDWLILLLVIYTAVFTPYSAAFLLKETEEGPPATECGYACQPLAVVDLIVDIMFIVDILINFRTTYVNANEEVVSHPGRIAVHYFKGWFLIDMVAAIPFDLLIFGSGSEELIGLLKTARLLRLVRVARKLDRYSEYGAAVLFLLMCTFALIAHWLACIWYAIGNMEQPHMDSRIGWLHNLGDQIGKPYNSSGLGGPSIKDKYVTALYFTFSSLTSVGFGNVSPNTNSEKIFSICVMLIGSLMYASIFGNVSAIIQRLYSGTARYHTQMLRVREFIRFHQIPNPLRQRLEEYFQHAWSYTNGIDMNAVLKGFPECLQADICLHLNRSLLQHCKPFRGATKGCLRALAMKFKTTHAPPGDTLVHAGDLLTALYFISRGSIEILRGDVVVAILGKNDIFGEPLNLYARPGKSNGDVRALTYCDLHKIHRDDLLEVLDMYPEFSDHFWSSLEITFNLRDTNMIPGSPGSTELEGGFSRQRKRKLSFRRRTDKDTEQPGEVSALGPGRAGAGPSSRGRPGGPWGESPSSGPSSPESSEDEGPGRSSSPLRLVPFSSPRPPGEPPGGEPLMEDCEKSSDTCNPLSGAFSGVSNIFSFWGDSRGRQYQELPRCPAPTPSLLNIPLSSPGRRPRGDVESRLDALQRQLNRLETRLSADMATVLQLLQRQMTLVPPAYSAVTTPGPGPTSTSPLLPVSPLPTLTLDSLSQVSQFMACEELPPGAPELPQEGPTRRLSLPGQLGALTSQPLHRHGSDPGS

For orientation: CL/F means clearance divided by bioavailability, as obtained after extravascular dosing. The term inhibition denotes the relative decrease from the control value, in per cent. A word on the efflux ratio: it is a quotient of directional permeabilities that is used to spot active efflux. Usually IC50 stands for the concentration needed to halve the response being measured. Turning to `O=C(O)c1ccc2nc(CN3CCC(c4cccc(OCc5ccc(C6COC6)cc5F)n4)CC3)n(C[C@@H]3CCO3)c2c1`, the result (in the data set filed under Macaca mulatta; in data set [7]) was Active. Also, the CL/F in data set [1] is 41.8 mL/min/kg. Further, the Drug uptake entry in data set [2], in [4] and in data set [12] was “Active” each time. Moreover, 1 µM produced 3.75% inhibition on hERG (KCNH2) [3]. Also, the outcome in [5], in [8], in data set [9] and in [14] was inactive. The inhibition in data set [6] was 57.8%. At hERG (KCNH2) [10], this compound returned an inhibition at 10 µM of 40.7%. In addition, the efflux ratio in [11] was found to be 5.26. Moreover, the IC50 was 8.76 µM in data set [13] and over 10 µM against Cytochrome P450 2B6.
By Cmax is commonly meant the maximum level reached in the sampled fluid or tissue. On to `N#Cc1ccc(COc2cccc(C3CCN(Cc4nc5ccc(C(=O)O)cc5n4C[C@@H]4CCO4)CC3)n2)c(F)c1` [DANUGLIPRON], for which the concentration in [15] peaked (Cmax) at 163 µM. This compound showed a CL/F in [1] of 36.5 mL/min/kg. Moreover, the inhibition in data set [16] was 86.9%. Further, the half-inhibitory concentration (IC50) in data set [17] was 2420 nM; at Cytochrome P450 2B6, over 10 µM.
